What was measured:
ABL1-phosphorylated = ABL1-phosphorylated (Homo sapiens, UniProt P00519); experiment: Kinase profiling; format: binding; settings: read-out: % Ctrl @ 1000 nM
AURKC = AURKC (Homo sapiens, UniProt Q9UQB9); experiment: Kinase profiling; format: binding; settings: read-out: % Ctrl @ 1000 nM
NIK = target: T1, NIK (Homo sapiens, UniProt Q99558); experiment: Kinase profiling; format: binding; settings: read-out: % Ctrl @ 1000 nM
T1 construct: T7 phage fusion (said for most assays); made in house

BIKE = BIKE (Homo sapiens, UniProt Q9NSY1); experiment: Kinase profiling; format: binding; settings: read-out: % Ctrl @ 1000 nM
MRCKB = target: T2, MRCKB (Homo sapiens, UniProt Q9Y5S2); experiment: Kinase profiling; format: binding; settings: read-out: % Ctrl @ 1000 nM
T2 construct: T7 phage fusion (stated for most kinases of the panel only); made in house; host or cells: T7 phage in E. coli (BL21-derived) or HEK-293 cells

TXK = TXK (Homo sapiens, UniProt P42681); experiment: Kinase profiling; format: binding; settings: read-out: % Ctrl @ 1000 nM
ULK1 = ULK1 (Homo sapiens, UniProt O75385); experiment: Kinase profiling; format: binding; settings: read-out: % Ctrl @ 1000 nM
CSNK2A2 = CSNK2A2 (Homo sapiens, UniProt P19784); experiment: Kinase profiling; format: binding; settings: read-out: % Ctrl @ 1000 nM
SGK3 = SGK3 (Homo sapiens, UniProt Q96BR1); experiment: Kinase profiling; format: binding; settings: read-out: % Ctrl @ 1000 nM
YSK4 = YSK4 (Homo sapiens, UniProt Q56UN5); experiment: Kinase profiling; format: binding; settings: read-out: % Ctrl @ 1000 nM
CDK2 = CDK2 (Homo sapiens, UniProt P24941); experiment: Kinase profiling; format: binding; settings: read-out: % Ctrl @ 1000 nM
EPHA5 = EPHA5 (Homo sapiens, UniProt P54756); experiment: Kinase profiling; format: binding; settings: read-out: % Ctrl @ 1000 nM
MRCKA = target: T3, MRCKA (Homo sapiens, UniProt Q5VT25); experiment: Kinase profiling; format: binding; settings: read-out: % Ctrl @ 1000 nM
T3 construct: T7 phage fusion (stated for most kinases of the panel only); made in house; host or cells: T7 phage in E. coli (BL21-derived) or HEK-293 cells

ARK5 = ARK5 (Homo sapiens, UniProt O60285); experiment: Kinase profiling; format: binding; settings: read-out: % Ctrl @ 1000 nM
SRPK3 = SRPK3 (Homo sapiens, UniProt Q9UPE1); experiment: Kinase profiling; format: binding; settings: read-out: % Ctrl @ 1000 nM
MKNK2 = target: T4, MKNK2 (Homo sapiens, UniProt Q9HBH9); experiment: Kinase profiling; format: binding; settings: read-out: % Ctrl @ 1000 nM
T4 construct: T7 phage fusion (stated for most kinases of the panel only); made in house; host or cells: T7 phage in E. coli (BL21-derived) or HEK-293 cells

EGFR (S752-I759del) = EGFR (S752-I759del) (Homo sapiens, UniProt P00533, DEL752-759); experiment: Kinase profiling; format: binding; settings: read-out: % Ctrl @ 1000 nM
[1] = target: EGFR (L747-E749del, A750P) (Homo sapiens, UniProt P00533, A750P/DEL747-749); experiment: Kinase profiling; format: binding; settings: read-out: % Ctrl @ 1000 nM
ERK1 = ERK1 (Homo sapiens, UniProt P27361); experiment: Kinase profiling; format: binding; settings: read-out: % Ctrl @ 1000 nM
PIP5K2B = PIP5K2B (Homo sapiens, UniProt P78356); experiment: Kinase profiling; format: binding; settings: read-out: % Ctrl @ 1000 nM
IGF1R = IGF1R (Homo sapiens, UniProt P08069); experiment: Kinase profiling; format: binding; settings: read-out: % Ctrl @ 1000 nM
[2] = test system: F4-80 (surface marker of macrophages); experiment: F4-80 IHC test in MC-38 tumor; design: species or system mouse; settings: end of in vivo efficacy trial; vs vehicle group
Description: MC38 tumor tissues were collected at the end of the in vivo efficacy trial. The tumor tissue was then embedded in paraffin. The expression of CD3/CD4/CD8/F4-80 were tested by immunohistochemistry stain.

JNK1 = JNK1 (Homo sapiens, UniProt P45983); experiment: Kinase profiling; format: binding; settings: read-out: % Ctrl @ 1000 nM
CDK8 = CDK8 (Homo sapiens, UniProt P49336); experiment: Kinase profiling; format: binding; settings: read-out: % Ctrl @ 1000 nM
CSF1R = CSF1R (Homo sapiens, UniProt P07333); experiment: Kinase profiling; format: binding; settings: read-out: % Ctrl @ 1000 nM
MTOR = target: T5, MTOR (Homo sapiens, UniProt P42345); experiment: Kinase profiling; format: binding; settings: read-out: % Ctrl @ 1000 nM
T5 construct: T7 phage fusion (said for most assays); made in house

CDK11 = CDK11 (Homo sapiens, UniProt Q9BWU1); experiment: Kinase profiling; format: binding; settings: read-out: % Ctrl @ 1000 nM
TSSK3 = TSSK3 (Homo sapiens, UniProt Q96PN8); experiment: Kinase profiling; format: binding; settings: read-out: % Ctrl @ 1000 nM
MAPKAPK5 = MAPKAPK5 (Homo sapiens, UniProt Q8IW41); experiment: Kinase profiling; format: binding; settings: read-out: % Ctrl @ 1000 nM
PIK3CA (H1047Y) = PIK3CA (H1047Y) (Homo sapiens, UniProt P42336, H1047Y); experiment: Kinase profiling; format: binding; settings: read-out: % Ctrl @ 1000 nM
HIPK3 = HIPK3 (Homo sapiens, UniProt Q9H422); experiment: Kinase profiling; format: binding; settings: read-out: % Ctrl @ 1000 nM
[3] = target: RSK1 (Kin.Dom.1-N-terminal) (Homo sapiens, UniProt Q15418); experiment: Kinase profiling; format: binding; settings: read-out: % Ctrl @ 1000 nM
BaF3 hCSF1R cell line = experiment: Proliferation of engineered BaF3 hCSF1R cell line (CTG assay); format: cell-based; settings: Mus musculus, 72 h; engineered BaF3 hCSF1R; 3 days; CTG; read-out: IC50
Description: Two syngeneic cell lines M-NFS-60 and RAW264.7 and engineered BaF3 hCSFIR cell line were starved and then tested with CBT-102 and other test articles for 3 days in the temperature of 37° C., 5% CO2 and 95% humidity. The cell viability was then detected using CTG assay. The software of GraphPad Prism was used to calculate IC50.
CSF-1 dependent mouse myeloid M-NFS-60 cells were employed as target cells while a CSF-1 independent cell line Raw 264.7 was used as a negative control. In addition to CBT-102, the study also included 3 CSF-1R inhibitors: GW2580, BLZ945 and Pexidartinib.

GRK2 = GRK2 (Homo sapiens, UniProt P25098); experiment: Kinase profiling; format: binding; settings: read-out: % Ctrl @ 1000 nM
Sequence of GRK2 (P25098 whole entry): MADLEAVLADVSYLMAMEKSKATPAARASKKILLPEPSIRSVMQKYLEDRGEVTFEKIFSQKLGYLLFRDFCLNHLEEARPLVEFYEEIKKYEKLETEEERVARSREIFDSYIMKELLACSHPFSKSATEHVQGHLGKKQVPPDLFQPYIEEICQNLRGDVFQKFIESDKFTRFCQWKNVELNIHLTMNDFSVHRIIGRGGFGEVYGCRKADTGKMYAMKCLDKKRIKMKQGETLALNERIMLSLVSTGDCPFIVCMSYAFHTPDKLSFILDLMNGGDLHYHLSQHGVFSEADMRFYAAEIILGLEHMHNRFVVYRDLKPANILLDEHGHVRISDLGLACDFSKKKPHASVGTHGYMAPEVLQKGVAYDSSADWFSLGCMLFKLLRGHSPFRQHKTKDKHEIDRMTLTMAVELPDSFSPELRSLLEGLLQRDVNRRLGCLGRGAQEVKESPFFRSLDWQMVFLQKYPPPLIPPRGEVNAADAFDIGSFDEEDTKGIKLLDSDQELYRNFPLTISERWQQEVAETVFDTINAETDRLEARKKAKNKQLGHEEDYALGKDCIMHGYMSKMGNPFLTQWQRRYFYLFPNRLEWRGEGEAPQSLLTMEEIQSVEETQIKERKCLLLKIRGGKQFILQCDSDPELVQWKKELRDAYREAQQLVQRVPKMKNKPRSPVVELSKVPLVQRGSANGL

T2 sequence (Q9Y5S2 whole entry, the tested form may be a part): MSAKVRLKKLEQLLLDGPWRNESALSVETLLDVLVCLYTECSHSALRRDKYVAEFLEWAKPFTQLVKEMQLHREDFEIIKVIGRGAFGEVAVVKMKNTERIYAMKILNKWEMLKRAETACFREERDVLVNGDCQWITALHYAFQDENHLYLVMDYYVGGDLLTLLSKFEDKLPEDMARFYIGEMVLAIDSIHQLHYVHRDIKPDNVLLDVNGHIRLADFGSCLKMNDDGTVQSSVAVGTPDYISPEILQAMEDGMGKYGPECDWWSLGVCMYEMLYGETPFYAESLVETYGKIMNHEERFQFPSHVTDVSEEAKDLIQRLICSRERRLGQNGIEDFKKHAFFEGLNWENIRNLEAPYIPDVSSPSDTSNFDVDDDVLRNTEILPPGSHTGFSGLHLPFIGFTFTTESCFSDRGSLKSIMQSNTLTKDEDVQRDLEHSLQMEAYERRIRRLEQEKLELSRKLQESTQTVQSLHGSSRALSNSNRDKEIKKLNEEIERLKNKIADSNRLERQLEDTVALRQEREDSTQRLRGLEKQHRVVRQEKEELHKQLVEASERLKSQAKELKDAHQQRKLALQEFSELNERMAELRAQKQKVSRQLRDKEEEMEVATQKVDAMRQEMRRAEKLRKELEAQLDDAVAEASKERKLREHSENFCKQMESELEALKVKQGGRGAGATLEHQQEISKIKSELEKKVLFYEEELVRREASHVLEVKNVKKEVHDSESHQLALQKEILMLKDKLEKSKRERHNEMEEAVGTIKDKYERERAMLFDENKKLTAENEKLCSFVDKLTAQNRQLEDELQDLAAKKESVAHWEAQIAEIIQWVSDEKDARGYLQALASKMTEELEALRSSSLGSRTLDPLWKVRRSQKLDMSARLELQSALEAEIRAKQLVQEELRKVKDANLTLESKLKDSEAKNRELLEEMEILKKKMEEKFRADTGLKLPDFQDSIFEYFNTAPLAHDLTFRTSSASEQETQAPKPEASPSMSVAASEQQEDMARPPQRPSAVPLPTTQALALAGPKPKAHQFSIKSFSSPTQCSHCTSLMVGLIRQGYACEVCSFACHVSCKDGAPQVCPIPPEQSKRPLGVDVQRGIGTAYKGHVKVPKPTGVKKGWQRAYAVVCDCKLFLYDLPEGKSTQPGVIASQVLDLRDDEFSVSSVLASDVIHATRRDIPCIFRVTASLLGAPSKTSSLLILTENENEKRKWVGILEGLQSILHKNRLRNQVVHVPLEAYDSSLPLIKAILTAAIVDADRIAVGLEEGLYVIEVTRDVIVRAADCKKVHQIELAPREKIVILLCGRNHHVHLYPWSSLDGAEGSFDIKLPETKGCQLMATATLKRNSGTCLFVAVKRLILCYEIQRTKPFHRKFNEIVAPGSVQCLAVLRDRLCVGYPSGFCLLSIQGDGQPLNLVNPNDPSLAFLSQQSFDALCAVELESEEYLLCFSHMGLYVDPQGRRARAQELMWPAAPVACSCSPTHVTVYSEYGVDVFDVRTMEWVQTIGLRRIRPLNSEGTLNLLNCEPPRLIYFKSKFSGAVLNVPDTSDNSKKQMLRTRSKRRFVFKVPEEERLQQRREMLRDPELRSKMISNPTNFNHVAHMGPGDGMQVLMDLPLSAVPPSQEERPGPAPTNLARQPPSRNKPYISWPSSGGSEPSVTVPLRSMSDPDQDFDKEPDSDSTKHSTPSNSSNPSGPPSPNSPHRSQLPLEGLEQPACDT
Sequence of CSNK2A2 (P19784 whole entry): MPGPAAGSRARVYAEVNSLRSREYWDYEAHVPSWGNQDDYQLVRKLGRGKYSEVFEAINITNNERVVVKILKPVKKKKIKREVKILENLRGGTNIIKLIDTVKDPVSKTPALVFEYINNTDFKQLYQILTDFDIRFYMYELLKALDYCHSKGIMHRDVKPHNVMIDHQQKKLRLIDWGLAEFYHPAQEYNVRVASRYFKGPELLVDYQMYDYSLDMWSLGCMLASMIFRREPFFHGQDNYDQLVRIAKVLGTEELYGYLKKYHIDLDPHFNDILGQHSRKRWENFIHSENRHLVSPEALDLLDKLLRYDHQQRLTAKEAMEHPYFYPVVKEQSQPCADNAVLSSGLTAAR
Sequence of EGFR (L747-E749del, A750P) (P00533 with tags, fused parts or gaps DEL747-749/A750P): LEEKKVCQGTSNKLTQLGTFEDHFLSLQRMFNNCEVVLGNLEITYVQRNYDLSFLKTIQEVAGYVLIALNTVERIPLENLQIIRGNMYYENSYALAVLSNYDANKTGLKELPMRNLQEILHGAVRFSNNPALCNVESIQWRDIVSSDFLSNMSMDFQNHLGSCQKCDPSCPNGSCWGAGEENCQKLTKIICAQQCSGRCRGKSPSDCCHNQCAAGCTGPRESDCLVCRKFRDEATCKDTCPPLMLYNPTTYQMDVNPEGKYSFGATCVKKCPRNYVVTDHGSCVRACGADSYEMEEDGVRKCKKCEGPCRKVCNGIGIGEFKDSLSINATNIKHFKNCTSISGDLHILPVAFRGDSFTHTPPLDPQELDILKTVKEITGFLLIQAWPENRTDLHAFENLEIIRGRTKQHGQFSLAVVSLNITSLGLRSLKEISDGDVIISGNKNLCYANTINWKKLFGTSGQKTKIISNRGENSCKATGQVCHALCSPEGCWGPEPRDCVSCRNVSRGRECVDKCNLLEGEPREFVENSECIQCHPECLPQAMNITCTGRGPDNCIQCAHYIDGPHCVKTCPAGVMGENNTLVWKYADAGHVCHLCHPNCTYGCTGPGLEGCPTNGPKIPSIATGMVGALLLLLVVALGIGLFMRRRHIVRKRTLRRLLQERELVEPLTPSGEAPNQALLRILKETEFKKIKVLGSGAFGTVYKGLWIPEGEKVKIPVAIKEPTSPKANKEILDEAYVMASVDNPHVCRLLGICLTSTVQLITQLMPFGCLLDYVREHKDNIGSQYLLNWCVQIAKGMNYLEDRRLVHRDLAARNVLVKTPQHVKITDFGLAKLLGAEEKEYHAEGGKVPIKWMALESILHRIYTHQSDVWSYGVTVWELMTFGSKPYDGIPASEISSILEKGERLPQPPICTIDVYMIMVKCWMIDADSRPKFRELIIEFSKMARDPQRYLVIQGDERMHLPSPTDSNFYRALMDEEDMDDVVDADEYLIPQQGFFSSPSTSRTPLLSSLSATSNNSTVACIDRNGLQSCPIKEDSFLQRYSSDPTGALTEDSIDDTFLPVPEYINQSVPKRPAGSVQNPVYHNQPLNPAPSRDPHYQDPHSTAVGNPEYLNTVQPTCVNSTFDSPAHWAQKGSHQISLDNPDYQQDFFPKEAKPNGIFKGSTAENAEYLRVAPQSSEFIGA
Sequence of BIKE (Q9NSY1 whole entry): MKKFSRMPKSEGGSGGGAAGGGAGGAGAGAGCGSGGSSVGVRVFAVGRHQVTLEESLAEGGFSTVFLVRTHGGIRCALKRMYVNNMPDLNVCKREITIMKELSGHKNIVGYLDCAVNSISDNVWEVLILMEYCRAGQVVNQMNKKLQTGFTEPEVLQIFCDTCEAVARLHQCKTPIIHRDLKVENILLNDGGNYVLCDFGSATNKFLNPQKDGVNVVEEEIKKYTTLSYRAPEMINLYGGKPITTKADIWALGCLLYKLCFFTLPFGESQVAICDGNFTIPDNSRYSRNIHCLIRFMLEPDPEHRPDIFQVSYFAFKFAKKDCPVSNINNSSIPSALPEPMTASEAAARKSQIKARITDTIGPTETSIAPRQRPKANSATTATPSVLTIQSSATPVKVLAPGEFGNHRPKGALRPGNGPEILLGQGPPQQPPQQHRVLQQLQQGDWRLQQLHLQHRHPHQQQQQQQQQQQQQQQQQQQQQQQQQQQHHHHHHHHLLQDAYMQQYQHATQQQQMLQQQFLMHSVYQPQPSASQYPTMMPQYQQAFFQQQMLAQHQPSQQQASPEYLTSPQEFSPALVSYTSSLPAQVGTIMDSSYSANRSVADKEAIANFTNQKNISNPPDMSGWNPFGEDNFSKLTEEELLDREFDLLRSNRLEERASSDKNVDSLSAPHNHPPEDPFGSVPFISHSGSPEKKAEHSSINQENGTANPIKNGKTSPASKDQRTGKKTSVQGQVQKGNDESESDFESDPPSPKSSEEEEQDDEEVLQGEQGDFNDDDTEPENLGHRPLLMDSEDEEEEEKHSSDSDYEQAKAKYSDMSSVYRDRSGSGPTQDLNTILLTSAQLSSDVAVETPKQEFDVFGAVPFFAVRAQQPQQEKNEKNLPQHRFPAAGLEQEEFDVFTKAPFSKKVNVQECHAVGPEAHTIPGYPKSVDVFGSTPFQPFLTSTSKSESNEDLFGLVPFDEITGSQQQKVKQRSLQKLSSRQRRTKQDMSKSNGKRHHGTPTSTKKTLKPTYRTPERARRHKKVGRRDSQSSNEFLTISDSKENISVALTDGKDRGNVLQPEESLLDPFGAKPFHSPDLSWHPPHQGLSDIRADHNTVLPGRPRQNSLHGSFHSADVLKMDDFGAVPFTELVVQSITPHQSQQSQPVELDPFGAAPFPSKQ

Cc1cc(Oc2cc(NC(=O)C3CC3)ncn2)ccc1NC(=O)Nc1ccc(Cl)c(C(F)(F)F)c1 [CBT-102]
remaining activity at 1 µM (ABL1-phosphorylated): 67%
remaining activity at 1 µM (AURKC): 33%
remaining activity at 1 µM (NIK): 100%
remaining activity at 1 µM (BIKE): 61%
remaining activity at 1 µM (MRCKB): 100%
remaining activity at 1 µM (TXK): 100%
remaining activity at 1 µM (ULK1): 98%
remaining activity at 1 µM (CSNK2A2): 100%
remaining activity at 1 µM (SGK3): 82%
remaining activity at 1 µM (YSK4): 9.6%
remaining activity at 1 µM (CDK2): 69%
remaining activity at 1 µM (EPHA5): 52%
remaining activity at 1 µM (MRCKA): 91%
remaining activity at 1 µM (ARK5): 100%
remaining activity at 1 µM (SRPK3): 100%
remaining activity at 1 µM (MKNK2): 83%
remaining activity at 1 µM (EGFR (S752-I759del)): 91%
remaining activity at 1 µM [1]: 80%
remaining activity at 1 µM (ERK1): 91%
remaining activity at 1 µM (PIP5K2B): 99%
remaining activity at 1 µM (IGF1R): 95%
F4-80 IHC score (%) in MC-38 tumor tissue [2]: significantly reduced
remaining activity at 1 µM (JNK1): 90%
remaining activity at 1 µM (CDK8): 14%
remaining activity at 1 µM (CSF1R): 0%
remaining activity at 1 µM (MTOR): 94%
remaining activity at 1 µM (CDK11): 0%
remaining activity at 1 µM (TSSK3): 100%
remaining activity at 1 µM (MAPKAPK5): 93%
remaining activity at 1 µM (PIK3CA (H1047Y)): 100%
remaining activity at 1 µM (HIPK3): 78%
remaining activity at 1 µM [3]: 100%
IC50 (BaF3 hCSF1R cell line): 588 nM
remaining activity at 1 µM (GRK2): 100%

Source: patent US20220088016A1, “CANCER TREATMENT USING MULTI-TARGETED KINASE INHIBITOR IN COMBINATION OF PROTEIN KINASE BIOMARKERS” (ZHEJIANG CROWNMAB BIOTECH CO. LTD., priority 2019, published 2022)
